These results are taken from patent US8134015B2, “Compound inhibiting in vivo phosphorous transport and medicine containing the same” (Kyowa Hakko Kirin Co., Ltd., priority 2003, dated 2012).

What is called IC50 is the concentration at which inhibition is half-maximal. For orientation: inhibition means the change of the read-out against control, counted positive when it falls.

Each structure is given as a SMILES string.

The first experiment addresses T1, rat NaPi-2b (Rattus norvegicus, UniProt Q9JJ09).
T1 construct: expressed in transfected cells; host or cells: Xenopus oocytes injected with cRNA
T1 sequence (Q9JJ09 1-695): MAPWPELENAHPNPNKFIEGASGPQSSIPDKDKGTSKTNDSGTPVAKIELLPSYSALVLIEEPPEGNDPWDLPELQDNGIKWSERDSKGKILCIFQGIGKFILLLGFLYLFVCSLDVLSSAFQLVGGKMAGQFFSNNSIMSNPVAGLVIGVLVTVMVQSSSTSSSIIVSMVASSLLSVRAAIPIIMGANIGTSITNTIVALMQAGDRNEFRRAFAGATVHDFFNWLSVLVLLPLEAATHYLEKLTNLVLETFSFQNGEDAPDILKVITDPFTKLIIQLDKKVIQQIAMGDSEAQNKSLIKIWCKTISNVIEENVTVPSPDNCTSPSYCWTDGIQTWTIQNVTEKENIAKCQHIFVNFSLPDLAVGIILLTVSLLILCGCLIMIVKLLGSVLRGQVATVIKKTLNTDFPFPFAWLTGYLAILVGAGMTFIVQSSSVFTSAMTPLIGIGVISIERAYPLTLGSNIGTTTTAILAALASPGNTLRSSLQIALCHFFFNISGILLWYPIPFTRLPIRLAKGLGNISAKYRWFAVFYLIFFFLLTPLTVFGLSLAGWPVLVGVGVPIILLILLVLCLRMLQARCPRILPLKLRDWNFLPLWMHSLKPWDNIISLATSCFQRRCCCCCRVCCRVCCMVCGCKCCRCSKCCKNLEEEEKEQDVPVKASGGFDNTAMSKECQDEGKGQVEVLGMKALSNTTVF
As to the kind of experiment: Sodium-dependent phosphate uptake of Xenopus oocytes which expressed NaPi-2b (32P). Conditions: Xenopus oocytes expressing rat NaPi-2b, 32P radioactive phosphorus; read-out: IC50 (phosphate uptake inhibitory activity). The experiment is classed as cell-based. A digest of the protocol:
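Inhibition at 300 μM and 100 μM was read off one inhibition curve of 32P phosphate uptake. Uptake was measured in Xenopus oocytes cultured 2 days after injection of cRNA for cloned rat NaPi-2b.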
As for `CCN(CC)CCN(C)Cc1cccc(C(=O)Nc2ccc(OCCOCCOC)cc2C(=O)N/N=C/c2ccc(Cl)c(C(F)(F)F)c2)c1` [Compound 1036, N-{2-(4-Chloro-3-trifluoromethyl-benzylidene-hydrazinocarbonyl)-4-[2-(2-methoxy-ethoxy)-ethoxy]-phenyl}-3-{[(2-diethylamino-ethyl)-methyl-amino]-methyl}-benzamide], the half-inhibitory concentration (IC50) turned out to be 1.5 µM.

On to `Cc1ccc(/C=N/NC(=O)c2c(NC(=O)c3cccc(CSCCCO)c3)sc3c2CCCC3)cc1C` [Compound 605, N-[3-(3,4-Dimethyl-benzylidene-hydrazinocarbonyl)-4,5,6,7-tetrahydro-benzo[b]thiophen-2-yl]-3-(3-hydroxy-propylsulfanyl-methyl)-benzamide], for which the IC50 is 0.95 µM.

As for `CCN(CC)CCNCc1ccc(C(=O)Nc2ccc(Br)cc2C(=O)N/N=C/c2ccc(C)cc2)cc1` [Compound 293, N-[4-Bromo-2-(4-methyl-benzylidene-hydrazinocarbonyl)-phenyl]-4-[(2-diethylamino-ethylamino)-methyl]-benzamide], the IC50 is 5.59 µM.

Turning to `COc1ccc(C(=O)Nc2ccccc2C(=O)N/N=C/c2ccc(F)cc2)cc1OC` [Compound 16, N-[2-(4-Fluoro-benzylidene-hydrazinocarbonyl)-phenyl]-3,4-dimethoxy-benzamide], the IC50 was determined as 2.3 µM.

Take `CN(CCO)Cc1cccc(C(=O)Nc2ccc(Cl)cc2C(=O)N/N=C/c2ccc(Cl)c(C(F)(F)F)c2)c1` [Compound 399, N-[4-Chloro-2-(4-chloro-3-trifluoromethyl-benzylidene-hydrazinocarbonyl)-phenyl]-3-{[(2-hydroxy-ethyl)-methyl-amino]-methyl}-benzamide]: the IC50 came to 3.67 µM.

As for `O=C(Nc1ccccc1C(=O)N/N=C/c1ccc(F)cc1)c1ccccn1` [Compound 506, Pyridin-2-carboxylic acid [2-(4-fluoro-benzylidene-hydrazinocarbonyl)-phenyl]-amide], the IC50 was 19.5 µM.

On to `COc1ccc(C(=O)Nc2cc(Cl)ccc2C(=O)N/N=C/c2ccc(F)cc2)cc1OC` [Compound 72, N-[5-Chloro-2-(4-fluoro-benzylidene-hydrazinocarbonyl)-phenyl]-3,4-dimethoxy-benzamide], for which the 50% inhibitory concentration (IC50) came out at 10.4 µM.

`CCN(CC)CCNCc1cccc(C(=O)Nc2scc(C)c2C(=O)N/N=C/c2ccc(Cl)c(C(F)(F)F)c2)c1` [Compound 585, N-[3-(4-Chloro-3-trifluoromethyl-benzylidene-hydrazinocarbonyl)-4-methyl-thiophen-2-yl]-3-[(2-diethylamino-ethylamino)-methyl]-benzamide]: the IC50 is < 3 µM.

`Cc1ccc(CNNC(=O)c2cc(Cl)ccc2NC(=O)c2cccc(CSCCO)c2)cc1C` [Compound 492, N-{4-Chloro-2-[N′-(3,4-dimethyl-benzyl)-hydrazinocarbonyl]-phenyl}-3-(2-hydroxy-ethylsulfanylmethyl)-benzamide]: the concentration for half-maximal inhibition (IC50) was < 3 µM.

As for `CCN(CC)CCN(CCN(CC)CC)Cc1cccc(C(=O)Nc2ccc(N3CCCCC3)cc2C(=O)N/N=C/c2cccc(F)c2)c1` [Compound 908, 3-{[Bis-(2-diethylamino-ethyl)-amino]-methyl}-N-[2-(3-fluoro-benzylidene-hydrazinocarbonyl)-4-piperidin-1-yl-phenyl]-benzamide], the IC50 was found to be 13.2 µM.

Consider `Cc1ccc(/C=N/NC(=O)c2cscc2NC(=O)c2cccc(CN3CCN(CCO)CC3)c2)cc1` [Compound 981, 3-[4-(2-Hydroxy-ethyl)-piperazin-1-ylmethyl]-N-[4-(4-methyl-benzylidene-hydrazinocarbonyl)-thiophen-3-yl]-benzamide], for which the IC50 was determined as 12.2 µM.

Turning to `O=C(Nc1ccccc1C(=O)N/N=C/c1cccc(O)c1)c1ccccc1F` [Compound 39, 2-Fluoro-N-[2-(3-hydroxy-benzylidene-hydrazinocarbonyl)-phenyl]-benzamide], the half-inhibitory concentration (IC50) is 9.24 µM.

Consider `COc1ccc(C(=O)Nc2ccc(Br)cc2C(=O)N/N=C/c2cccc(O)c2)cc1OC` [Compound 63, N-[4-Bromo-2-(3-hydroxy-benzylidene-hydrazinocarbonyl)-phenyl]-3,4-dimethoxy-benzamide], for which the IC50 came to 5.97 µM.

As for `COc1ccc(C(=O)Nc2ccc(I)cc2C(=O)N/N=C/c2ccc(F)cc2)cc1OC` [Compound 205, N-[2-(4-Fluoro-benzylidene-hydrazinocarbonyl)-4-iodo-phenyl]-3,4-dimethoxy-benzamide], the IC50 is < 3 µM.

On to `COc1ccc(/C=N/NC(=O)c2cc(I)ccc2NC(=O)c2cccc(CN3CCC(N4CCCCC4)CC3)c2)cc1` [Compound 489, 3-[1,4′]Bipiperidinyl-1′-ylmethyl-N-[4-iodo-2-(4-methoxy-benzylidene-hydrazinocarbonyl)-phenyl]-benzamide], for which the IC50 is < 3 µM.

In the case of `Cc1csc(NC(=O)c2cccc(CN3CCC(O)CC3)c2)c1C(=O)N/N=C/c1cccc(F)c1` [Compound 596, N-[3-(3-Fluoro-benzylidene-hydrazinocarbonyl)-4-methyl-thiophen-2-yl]-3-(4-hydroxy-piperidin-1-ylmethyl)-benzamide], the concentration for half-maximal inhibition (IC50) amounted to 5.47 µM.

Regarding `O=C(Nc1ccc(Cl)cc1C(=O)N/N=C/c1ccc(O)cc1)c1cccc(CN2CCC(N3CCCCC3)CC2)c1` [Compound 377, 3-[1,4′]Bipiperidinyl-1′-ylmethyl-N-[4-chloro-2-(4-hydroxy-benzylidene-hydrazinocarbonyl)-phenyl]-benzamide], the IC50 is 9.65 µM.

In the case of `COc1ccc(C(=O)Nc2ccc(Cl)cc2C(=O)N/N=C/c2ccc(O)cc2)cc1OC` [Compound 70, N-[4-Chloro-2-(4-hydroxy-benzylidene-hydrazinocarbonyl)-phenyl]-3,4-dimethoxy-benzamide], the IC50 is 9.51 µM.

The same experiment, now with this note: phosphate uptake, oocytes expressing rat NaPi-2b; 300 μM, determined from inhibition curve.
`Cc1ccc(/C=N/NC(=O)c2sc(C(C)(C)C)cc2NC(=O)c2cccc(CN3CCN(CCO)CC3)c2)cc1C` [Compound 991, N-[5-Tert-butyl-2-(3,4-dimethyl-benzylidene-hydrazinocarbonyl)-thiophen-3-yl]-3-[4-(2-hydroxy-ethyl)-piperazin-1-ylmethyl]-benzamide] returned an inhibition at 300 µM of 30.1%.

In turn, `CCN(CC)CCN(C)Cc1cccc(C(=O)Nc2c(C)csc2C(=O)N/N=C/c2ccc(C)c(C)c2)c1` [Compound 711, 3-{[(2-Diethylamino-ethyl)-methyl-amino]-methyl}-N-[2-(3,4-dimethyl-benzylidene-hydrazinocarbonyl)-4-methyl-thiophen-3-yl]-benzamide] came in with an inhibition at 300 µM of 81%.

In turn, `CCOCCN(CCOCC)Cc1ccc(C(=O)Nc2ccc(Br)cc2C(=O)N/N=C/c2ccc(C)cc2)cc1` [Compound 734, 4-{[Bis-(2-ethoxy-ethyl)-amino]-methyl}-N-[4-bromo-2-(4-methyl-benzylidene-hydrazinocarbonyl)-phenyl]-benzamide] came in with an inhibition at 300 µM of 64.9%.

With `O=C(Nc1ccc(Br)cc1C(=O)N/N=C/c1ccc(Cl)c(C(F)(F)F)c1)c1ccc(CN2CCN(c3ccccn3)CC2)cc1` [Compound 776, N-[4-Bromo-2-(4-chloro-3-trifluoromethyl-benzylidene-hydrazinocarbonyl)-phenyl]-4-(4-pyridin-2-yl-piperazin-1-ylmethyl)-benzamide], testing at 300 µM gave an inhibition of 49.2%.

With `O=C(Nc1ccc(Cl)cc1C(=O)N/N=C/c1cccc(F)c1)c1cnc2ccccc2n1` [Compound 1004, Quinoxaline-2-carboxylic acid [4-chloro-2-(3-fluoro-benzylidene-hydrazinocarbonyl)-phenyl]-amide], at 300 µM the inhibition was 34.2%.
